One data set deals with TF/FVIIa (Homo sapiens, UniProt P08709). Description: TF/FVIIa inhibition (TF/FVIIa-IC50). The data set is classed as biochemical. The text has this:
The inhibition of factor VIIa by the compounds according to the invention and the measurement of the anticoagulant and antithrombotic activity can be determined by conventional in-vitro or in-vivo methods. A conventional method for the measurement of the inhibition of factor VIIa is described, for example, by H. F. Ronning et al. in Thrombosis Research 1996, 84, 73-81.

Another data set addresses FXa (Homo sapiens, UniProt P00742). Description: Factor Xa inhibition (FXa-IC50). In kind it is biochemical. The source says:
The inhibition of factor Xa by the compounds according to the invention and the measurement of the anticoagulant and antithrombotic activity can be determined by conventional in-vitro or in-vivo methods. A suitable method is described, for example, by J. Hauptmann et al. in Thrombosis and Haemostasis 1990, 63, 220-223.
The inhibition of factor Xa can be measured, for example by the method of T. Hara et al. in Thromb. Haemostas. 1994, 71, 314-319.

FXa, sequence (P00742 235-488 limits assumed): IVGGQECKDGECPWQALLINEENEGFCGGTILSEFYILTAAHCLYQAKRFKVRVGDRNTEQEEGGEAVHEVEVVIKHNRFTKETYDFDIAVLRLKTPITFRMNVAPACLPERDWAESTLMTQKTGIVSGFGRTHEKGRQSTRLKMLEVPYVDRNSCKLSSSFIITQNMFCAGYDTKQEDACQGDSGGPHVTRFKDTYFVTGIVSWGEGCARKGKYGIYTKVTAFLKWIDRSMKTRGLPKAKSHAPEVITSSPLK
FXa, sequence (P00742 41-179 limits assumed): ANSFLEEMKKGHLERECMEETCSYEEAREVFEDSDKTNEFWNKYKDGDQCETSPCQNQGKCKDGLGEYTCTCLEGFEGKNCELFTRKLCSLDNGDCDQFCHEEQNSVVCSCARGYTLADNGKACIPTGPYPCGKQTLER
TF/FVIIa, sequence (P08709 213-466 limits assumed): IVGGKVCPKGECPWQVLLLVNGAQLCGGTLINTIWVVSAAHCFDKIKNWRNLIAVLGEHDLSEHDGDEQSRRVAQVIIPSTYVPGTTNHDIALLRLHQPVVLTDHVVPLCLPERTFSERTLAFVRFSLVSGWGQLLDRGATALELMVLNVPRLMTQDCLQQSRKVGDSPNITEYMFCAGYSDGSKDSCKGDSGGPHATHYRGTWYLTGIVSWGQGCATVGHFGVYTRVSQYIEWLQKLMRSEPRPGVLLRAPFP
TF/FVIIa, sequence (P08709 61-212 limits assumed): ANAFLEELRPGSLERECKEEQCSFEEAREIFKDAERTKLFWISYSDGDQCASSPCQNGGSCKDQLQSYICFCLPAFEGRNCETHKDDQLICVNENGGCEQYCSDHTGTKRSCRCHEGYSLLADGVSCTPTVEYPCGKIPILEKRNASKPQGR
TF/FVIIa, sequence (P13726 33-295 partner): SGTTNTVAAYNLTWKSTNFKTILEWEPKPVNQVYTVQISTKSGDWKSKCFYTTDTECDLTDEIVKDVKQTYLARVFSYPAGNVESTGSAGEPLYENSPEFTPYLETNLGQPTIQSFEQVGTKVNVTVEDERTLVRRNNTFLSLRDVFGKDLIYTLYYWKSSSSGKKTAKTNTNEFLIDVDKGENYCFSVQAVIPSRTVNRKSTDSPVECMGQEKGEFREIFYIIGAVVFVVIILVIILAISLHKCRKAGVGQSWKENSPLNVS

On to `CCCN(NC(=O)c1ccc(Cl)s1)C(=O)Nc1ccc(N2CCOCC2=O)cc1` [Compound A1, 1-(5-chlorothien-2-ylcarbonyl)-4-[4-(3-oxomorpholin-4-yl)phenyl]-2-propylsemicarbazide], for which the melting point (in general, the temperature, or range, at which the solid turns liquid) is 101 to 102 °C. Moreover, half-maximal inhibition at TF/FVIIa (IC50) required 830 nM. For the same compound, the IC50 (in general, the concentration that gives 50% inhibition) against FXa worked out at 390 nM.
As for `C#CCN(NC(=O)c1ccc(Cl)s1)C(=O)Nc1ccc(N2CCOCC2=O)c(C)c1` [Compound A2, 1-(5-chlorothien-2-ylcarbonyl)4-[3-methyl-4-(3-oxomorpholin4-yl)-phenyl]-2-(prop-2-ynyl)semicarbazide], the IC50 is 1000 nM on TF/FVIIa and 570 nM against FXa.
In the case of `Cc1cc(NC(=O)N(Cc2ccccc2)NC(=O)c2sccc2Cl)ccc1N1CCOCC1=O` [Compound A3, 1-(3-chlorothien-2-ylcarbonyl)4-[3-methyl4-(3-oxomorpholin4-yl)-phenyl]-2-benzylsemicarbazide], the values for the IC50 against TF/FVIIa and against FXa were 180 nM and 87 nM, respectively.

The values are drawn from patent US7763611B2, “Aroylsemicarbazide derivatives against thromboembolic diseases” (Merck Patent GmbH, priority 2003, dated 2010).
